The values below are quoted from earlier work in US10695378B2, “Direct reprogramming of cells to cardiac myocyte fate” (Duke University, priority 2010, dated 2020).

The subject of data set [1] is human tumor cell line.
Data set [2] concerns JAK1. The conditions noted are these: small molecule inhibitors of JAK-1.
Experiment in data set [3]: not given
This is another data set of the same source.

In data set [4] the test system is TGFβ-induced epithelial-to-mesenchymal transition.
Data set [5] relates to Smad2.
Experiment in data set [6]: not given
This is another data set of the same source.

Turning to `O=C(O)C(Cc1c[nH]c2ccccc12)N1C(=O)c2ccccc2C1=O` (stereo not shown) [RG108, 2-(1,3-Dioxo-1,3-dihydro-2H-isoindol-2-yl)-3-(1H-indol-3-yl)propionic acid], in data set [1], the “doubling time in culture” value is listed as “increases” and the “human tumor cell line proliferation” value is recorded as “inhibit”.
Regarding `CC(C)(C)c1nc2c3ccc(F)cc3c3c(=O)[nH]ccc3c2[nH]1` [JAK inhibitor 1, 2-(1,1-Dimethylethyl)-9-fluoro-3,6-dihydro-7H-benz[h]-imidaz[4,5-f]isoquinolin-7-one], the “phosphorylation of STATS” value was “blocks”. Moreover, the “IC50 values (in words)” value in data set [2] was “nanomolar range”.
For `O=C(O)C=C(CCc1ccc(Cl)cc1)c1ccccc1` [PS48, 5-(4-Chloro-phenyl)-3-phenyl-pent-2-enoic acid], the “soluble in DMSO” value in data set [3] was over 20 mg/mL.
As for `Cc1cccc(-c2nn(C(=S)Nc3ccccc3)cc2-c2ccnc3ccccc23)n1` [A83-01, 3-(6-Methyl-2-pyridinyl)-N-phenyl-4-(4-quinolinyl)-1H-pyrazole-1-carbothioamide], the TGFβ-induced epithelial-to-mesenchymal transition entry in data set [4] was “inhibits”. The “phosphorylation of Smad2” value in data set [5] is on record as “blocks”.
As for `CCCC(CCC)C(=O)O` [Valproic acid, 2-propylpentanoic acid], the therapeutic range in data set [6] (currently established therapeutic range) is 50 to 120 µg/mL. Also, in data set [6] (during controlled therapy), the “Serum or plasma valproic acid concentrations” value is 20 to 100 mg/L.
Turning to `N#CC[C@H](C1CCCC1)n1cc(-c2ncnc3[nH]ccc23)cn1` [INCB018424], the “IC50 values (in words)” value in data set [2] was “nanomolar range”.
